Holding throughout (type): in vivo
One data set concerns Caenorhabditis elegans. Put plainly: Antiparasitic activity against Caenorhabditis elegans, 96 well microplate (MIC). The conditions noted are these: 20° C., observed after 24 and 48 hours. The text has this:
(§1) As model insects for simple determination of antiparasitic and insecticidal activities, those insects are desired which can be easily obtained and bred in laboratories, and have no pathogenicity to a human. Caenorhabditis elegans, an unparasitic eelworm widely used in experiments of genetics, was used as a typical steam worm, and Artemia salina used as feed for tropical fish and named Brine shrimp, was used instead of insects.
Escherichia. coli for the feed of Caenorhabditis elegans (mutant having uracil requirement) was inoculated in a seed medium for E. coli to which a small amount of uracil was added, and cultured with shaking at 27° C. for 1 day. A petri dish of 6 cm diameter was filled with 10 ml of an agar medium for eelworm proliferation, and the medium was solidified. Then 0.5 ml of the culture of E. coli was spread over the medium in the dish, and the dish was incubated at 37° C. to proliferate E. coli. A piece of the agar was collected with a platinum loop from a petri dish in which Caenorhabditis elegans successfully proliferated, and inoculated in petri dishes in which E. coli was proliferated. The petri dishes were incubated at 20° C. to proliferate Caenorhabditis elegans. Since the life of eelworm is about 2 weeks, subculture was carried out every once a week. The eelworms grown with spread on the surface of the petri dish after 3 to 5 days from subculture were used for the experiments.
The agar medium for eelworm proliferation was prepared by mixing the solutions in the following proportion: Solution A: 100 ml, Solution B: 0.1 ml, Solution C: 0.05 ml, Solution D: 0.1 ml and Solution E: 2.5 ml (without pH adjustment), and dispensing each 10 ml portion into petri dishes of 60×15 mm.
In distilled water, 2.0% of bact-trypton (DIFCO Co.), 0.55% of sodium chloride and 0.001% of uracil (SIGMA Co., pH 7.4) were dissolved, and the solution was sterilized in an autoclave at 121° C. for 20 minutes.
(§2) Each well of a 96 well microplate was filled with the solution of the test compound (methanol as a solvent), and the solvent was removed using a vacuum pump, then 250 μl of the assay medium was added to each wells (the assay medium was prepared by dissolving 7.5 mM sodium hydrogencarbonate, 7.5 mM potassium chloride, 7.5 mM calcium chloride dihydrate and 7.5 mM magnesium sulfate heptahydrate in distilled water and adding 0.01% of lecithin thereto), and then the microplate was shaken using a microplate mixer for 15 minutes. To each well, a few individuals of Caenorhabditis elegans were added by softly rubbing the surface of the agar using a toothpick, or a few individuals of Artemia salina were added together with 50 μl of the buffer. The microplate was incubated at 20° C., and then the insects were observed after 24 and 48 hours under a microscope (magnification of 40×). The results were compared to those obtained without addition of the test compound, and evaluated by 4 grades.
(§3) The evaluation results were shown by indications of 4 grades from 0 to 3.
(§4) 1: A little week movements
(§5) Of the 4 grades, Indications 3 and 2 were judged as effective, and Indications 1 and 0 as ineffective. In Table 9, the values for each compound are minimum inhibitory concentrations (MIC) which were required to give Indication 2 (or 3) for Caenorhabditis elegans or Artemia salina. In Table 9, Caenorhabditis elegans and Artemia salina are abbreviated as C.E. and A.S., respectively.

Another data set has as its system Artemia salina. Kind of data set: Insecticidal model activity against Artemia salina (brine shrimp), 96 well microplate (MIC). The note with it: 20° C., observed after 24 and 48 hours.
Text: as §1
To a buffer for Artemia salina (obtained by dissolving 0.24% of Tris, 2.57% of sodium chloride, 0.47% of magnesium chloride, 0.07% of potassium chloride, 0.02% of sodium carbonate, 0.64% of magnesium sulfate and 0.11% of calcium chloride in distilled water and adjusting the pH to 7.1 with hydrochloric acid), dried eggs of Artemia salina [Tetra Brine Shrimp Eggs, Warner Lambert Co.] were added. The noprius larvae 1 or 2 days after hatching were used for the experiments.
as §2, §3, §4, §5

Data set [1] deals with Adult Ctenocephalides felis. Put plainly: Test on cat fleas / oral absorption. The conditions noted are these: after 24 hours. How it is done:
Test on cat fleas/oral absorption
Test animals: Adult Ctenocephalides felis
Solvent: Dimethylsulfoxide (DMSO)
20 μl of this formulation are added to 4 ml of citrated cow's blood and stirred.
20 starved adult fleas (of “Georgi” species of Ctenocephalides felis) are introduced into a chamber (of a diameter of 5 cm) which is sealed with gauze at the top and bottom. A metal cylinder, whose base is sealed with parafilm, is placed on the chamber. […] Whereas the blood is heated to 37° C. a temperature of 25° C. is adjusted in the region of the flea chambers. Controls are mixed with the same volume of DMSO without the addition of any of the compounds. The test are repeated three times.
After 24 hours the mortality is determined in %.

Regarding `CCC(C)C1OC2(C=CC1C)CC1CC(CC=C(C)C(OC3CC(OC)C(OC4CC(OC)C(=CCOC(=O)c5ccncc5)C(C)O4)C(C)O3)C(C)C=CC=C3COC4C(O[Si](C)(C)C(C)(C)C)C(C)=CC(C(=O)O1)C34O)O2` (centres unmarked) [Compound 17], in the data set with Caenorhabditis elegans, the “C.E. minimum inhibitory concentration (MIC) required to give Indication 2 (or 3)” value (“C.E. minimum inhibitory concentration” below) worked out at 100 µg/mL. Also, the “A.S. minimum inhibitory concentration (MIC) required to give Indication 2 (or 3)” value (shortened to “A.S. minimum inhibitory concentration”) with Artemia salina turned out to be 100 µg/mL.

As for `CCOC(=O)C=C1C(C)OC(OC2C(C)OC(OC3C(C)=CCC4CC(CC5(C=CC(C)C(C(C)CC)O5)O4)OC(=O)C4C=C(C)C(O[Si](C)(C)C(C)(C)C)C5OCC(=CC=CC3C)C45O)CC2OC)CC1OC` (centres unmarked) [Compound 1], in the data set on Caenorhabditis elegans, the “C.E. minimum inhibitory concentration” value is 100 µg/mL. In addition, in the data set with Artemia salina, the “A.S. minimum inhibitory concentration” value came out at 100 µg/mL.

As to `CCC(C)C1OC2(C=CC1C)CC1CC(CC=C(C)C(OC3CC(OC)C(OC4CC(OC)C(=CC=NO)C(C)O4)C(C)O3)C(C)C=CC=C3COC4C(O)C(C)=CC(C(=O)O1)C34O)O2` (single isomer, unassigned) [Compound 9], the “C.E. minimum inhibitory concentration” value in the data set on Caenorhabditis elegans came out at 0.01 µg/mL. For the same molecule, the “A.S. minimum inhibitory concentration” value with Artemia salina came out at 0.002 µg/mL.

For `C=CCOC(=O)C=C1C(C)OC(OC2C(C)OC(OC3C(C)=CCC4CC(CC5(C=CC(C)C(C(C)CC)O5)O4)OC(=O)C4C=C(C)C(O)C5OCC(=CC=CC3C)C45O)CC2OC)CC1OC` (centres unmarked) [Compound 20], the “C.E. minimum inhibitory concentration” value with Caenorhabditis elegans amounted to 0.01 µg/mL. Also, the “A.S. minimum inhibitory concentration” value in the data set on Artemia salina worked out at 0.002 µg/mL.

In the case of `CCC(C)C1OC2(C=CC1C)CC1CC(CC=C(C)C(OC3CC(OC)C(OC4CC(OC)C(=CCOC(=O)C5CCCN5C(=O)OC(C)(C)C)C(C)O4)C(C)O3)C(C)C=CC=C3COC4C(O)C(C)=CC(C(=O)O1)C34O)O2` (centres unmarked) [Compound 30], the “C.E. minimum inhibitory concentration” value in the data set on Caenorhabditis elegans was 0.05 µg/mL. The “A.S. minimum inhibitory concentration” value in the data set on Artemia salina came to 0.01 µg/mL.

For the molecule `CCC(C)C1OC2(C=CC1C)CC1CC(CC=C(C)C(OC3CC(OC)C(OC4CC(OC)C(=CCO)C(C)O4)C(C)O3)C(C)C=CC=C3COC4C(O[Si](C)(C)C(C)(C)C)C(C)=CC(C(=O)O1)C34O)O2` (centres unmarked) [Compound 3], the “C.E. minimum inhibitory concentration” value in the data set on Caenorhabditis elegans amounted to 100 µg/mL. In addition, the “A.S. minimum inhibitory concentration” value in the data set on Artemia salina came to 20 µg/mL.

On to `CCC(C)C1OC2(C=CC1C)CC1CC(CC=C(C)C(OC3CC(OC)C(OC4CC(OC)C(=CCOC(=O)c5ccc(Cl)nc5)C(C)O4)C(C)O3)C(C)C=CC=C3COC4C(O)C(C)=CC(C(=O)O1)C34O)O2` (centres unmarked) [Compound 34], for which the “C.E. minimum inhibitory concentration” value with Caenorhabditis elegans was determined as 0.002 µg/mL. Further, the “A.S. minimum inhibitory concentration” value in the data set with Artemia salina was found to be 0.002 µg/mL.

On to `CCC(C)C1OC2(C=CC1C)CC1CC(CC=C(C)C(OC3CC(OC)C(OC4CC(OC)C(=CC(=O)O)C(C)O4)C(C)O3)C(C)C=CC=C3COC4C(O)C(C)=CC(C(=O)O1)C34O)O2` (centres unmarked) [Compound 25], for which, in the data set with Caenorhabditis elegans, the “C.E. minimum inhibitory concentration” value is 0.05 µg/mL. Also, in the data set on Artemia salina, the “A.S. minimum inhibitory concentration” value was determined as 0.01 µg/mL. For the same molecule, the figures for the mortality of fleas in data set [1] (10 ppm in citrated cow's blood) and in data set [1] (100 ppm in citrated cow's blood) were 69% and 100%, respectively.

For `CCC(C)C1OC2(C=CC1C)CC1CC(CC=C(C)C(OC3CC(OC)C(OC4CC(OC)C(=CC=O)C(C)O4)C(C)O3)C(C)C=CC=C3COC4C(O)C(C)=CC(C(=O)O1)C34O)O2` (centres unmarked) [Compound 8], in the data set with Caenorhabditis elegans, the “C.E. minimum inhibitory concentration” value stood at 0.01 µg/mL. The “A.S. minimum inhibitory concentration” value in the data set on Artemia salina was found to be 0.01 µg/mL.

Take `CCC(C)C1OC2(C=CC1C)CC1CC(CC=C(C)C(OC3CC(OC)C(OC4CC(OC)C(=CC=NNC(N)=O)C(C)O4)C(C)O3)C(C)C=CC=C3COC4C(O)C(C)=CC(C(=O)O1)C34O)O2` (centres unmarked) [Compound 22]: the “C.E. minimum inhibitory concentration” value with Caenorhabditis elegans came out at 0.01 µg/mL. In addition, the “A.S. minimum inhibitory concentration” value in the data set on Artemia salina turned out to be 0.0005 µg/mL.

Consider `CCC(C)C1OC2(C=CC1C)CC1CC(CC=C(C)C(OC3CC(OC)C(OC4CC(OC)C(=CCNC)C(C)O4)C(C)O3)C(C)C=CC=C3COC4C(O)C(C)=CC(C(=O)O1)C34O)O2` (centres unmarked) [Compound 11], for which the “C.E. minimum inhibitory concentration” value with Caenorhabditis elegans was 0.05 µg/mL. In addition, the “A.S. minimum inhibitory concentration” value in the data set with Artemia salina amounted to 0.01 µg/mL.

With `CCC(C)C1OC2(C=CC1C)CC1CC(CC=C(C)C(OC3CC(OC)C(OC4CC(OC)C(=CC=NOC)C(C)O4)C(C)O3)C(C)C=CC=C3COC4C(O)C(C)=CC(C(=O)O1)C34O)O2` (single isomer, unassigned) [Compound 13], the “C.E. minimum inhibitory concentration” value with Caenorhabditis elegans was 0.01 µg/mL. The “A.S. minimum inhibitory concentration” value in the data set with Artemia salina stood at 0.002 µg/mL.

For the molecule `CCC(C)C1OC2(C=CC1C)CC1CC(CC=C(C)C(OC3CC(OC)C(OC4CC(OC)C(=CC=NO)C(C)O4)C(C)O3)C(C)C=CC=C3COC4C(O)C(C)=CC(C(=O)O1)C34O)O2` (single isomer, unassigned) [Compound 10], in the data set on Caenorhabditis elegans, the “C.E. minimum inhibitory concentration” value turned out to be 0.01 µg/mL. Moreover, in the data set on Artemia salina, the “A.S. minimum inhibitory concentration” value came to 0.002 µg/mL.

As to `CCC(C)C1OC2(C=CC1C)CC1CC(CC=C(C)C(OC3CC(OC)C(OC4CC(OC)C(=CC=O)C(C)O4)C(C)O3)C(C)C=CC=C3COC4C(O[Si](C)(C)C(C)(C)C)C(C)=CC(C(=O)O1)C34O)O2` (centres unmarked) [Compound 5], in the data set on Caenorhabditis elegans, the “C.E. minimum inhibitory concentration” value worked out at 100 µg/mL. For the same molecule, in the data set with Artemia salina, the “A.S. minimum inhibitory concentration” value came out at 100 µg/mL.

On to `CCC(C)C1OC2(C=CC1C)CC1CC(CC=C(C)C(OC3CC(OC)C(OC4CC(OC)C(=CC(=O)OC)C(C)O4)C(C)O3)C(C)C=CC=C3COC4C(O[Si](C)(C)C(C)(C)C)C(C)=CC(C(=O)O1)C34O)O2` (centres unmarked) [Compound 6], for which the “C.E. minimum inhibitory concentration” value with Caenorhabditis elegans is over 100 µg/mL. The “A.S. minimum inhibitory concentration” value in the data set with Artemia salina was “≧100 μg/ml”.

In the case of `CCC(C)C1OC2(CC(=O)C1C)CC1CC(CC=C(C)C(OC3CC(OC)C(OC4CC(OC)C(=CC(=O)OC)C(C)O4)C(C)O3)C(C)C=CC=C3COC4C(O)C(C)=CC(C(=O)O1)C34O)O2` (centres unmarked) [Compound 41], the “C.E. minimum inhibitory concentration” value with Caenorhabditis elegans stood at 0.01 µg/mL. Further, the “A.S. minimum inhibitory concentration” value with Artemia salina is 0.01 µg/mL.

In the case of `CCC(C)C1OC2(C=CC1C)CC1CC(CC=C(C)C(OC3CC(OC)C(OC4CC(OC)C(=CC=NOC)C(C)O4)C(C)O3)C(C)C=CC=C3COC4C(O)C(C)=CC(C(=O)O1)C34O)O2` (single isomer, unassigned) [Compound 12], the “C.E. minimum inhibitory concentration” value with Caenorhabditis elegans came out at 0.01 µg/mL. In addition, in the data set on Artemia salina, the “A.S. minimum inhibitory concentration” value worked out at 0.01 µg/mL.

In the case of `CCC(C)C1OC2(C=CC1C)CC1CC(CC=C(C)C(OC3CC(OC)C(OC4CC(OC)C(=CCN)C(C)O4)C(C)O3)C(C)C=CC=C3COC4C(O[Si](C)(C)C(C)(C)C)C(C)=CC(C(=O)O1)C34O)O2` (centres unmarked) [Compound 14], the “C.E. minimum inhibitory concentration” value in the data set with Caenorhabditis elegans was 100 µg/mL. In addition, the “A.S. minimum inhibitory concentration” value in the data set with Artemia salina turned out to be 5 µg/mL.
